The values that follow are results of earlier work, collected in patent publication US20090041869A1, “METHOD OF REDUCING INSECT RESISTANT PESTS IN […]” (PIONEER HI-BRED INTERNATIONAL, INC., priority 2004, published 2009).

For the data set, the system named is European corn borer, Ostrinia nubilalis. To be noted: Cry 1F selected colony vs unselected colony, likelihood ratio test at α=0.05.

“Also recorded” adds a separate entry of the source. Read-outs that look alike come from different tables or passages of the source.

Take “Cry 1Ab: Bt crystal protein toxin assessed for cross resistance”: the “cross resistance of the Cry 1F selected strain to other Bt toxins” value is on record as “No cross resistance; also recorded: does not lead to loss of susceptibility”. Besides, the “cross resistance of the Cry 1F selected strain to other Bt toxins” value (listed as Cry1 Ab) is reported as “no cross resistance”.
For “Cry 1Ac: Bt crystal protein toxin assessed for cross resistance”, the “cross resistance of the Cry 1F selected strain to other Bt toxins” value was 6.89 fold.
